# Tested on: adipose-derived mesenchymal stem cells (ADSC)
# Experiment: Amount of exosomes produced from ADSC, measured with Exo Counter (CD81 sandwich immunoassay) after excluding single factors
# Type: cell-based
# Conditions: 48-hour culture in DMEM F12 on nonwoven fabric; one factor excluded from the eight factors of Table 1, compared with all eight added; CD81 on exosome surface detected in culture supernatant; FIG. 1
# Experimental: 4×10^4 adipose-derived mesenchymal stem cells (ADSC) were seeded in each well. A nonwoven fabric (3D, BioNOCII, CESCO BIOENGINEERING CO., LTD. in non-adhesive 24 well plate (PrimeSurface (registered trademark) Sumitomo Bakelite Co., Ltd.) was used for cell culture. A basal medium was 1.5 ml of 10% FBS/DMEM F12 (Sigma-Aldrich). The number of days of culture was 6. Starting from Day 2, 1.5 ml of medium was exchanged daily, and the amount of sugar consumed in the used culture medium was measured.
# Next, in the cell culture for 48 hours on Day 7 and Day 8, DMEM F12 was used as a medium so as to collect exosomes. In this 48-hour culture, 10% ExoFBS (Funakoshi Co., Ltd.) was added in Test #1. ExoFBS is a product from which bovine-derived exosomes are removed; therefore, influence on an exosome research is reduced.
# In Test #3 of the 48-hour culture, only factor A was excluded from the eight factors shown in Table 1, and the other factors were added. In Test #4 of the 48-hour culture, only factor B was excluded from the eight factors shown in Table 1, and the other factors were added. In Test #5 of the 48-hour culture, only factor C was excluded from the eight factors shown in Table 1, and the other factors were added. In Test #6 of the 48-hour culture, only factor D was excluded from the eight factors shown in Table 1, and the other factors were added. In Test #7 of the 48-hour culture, only factor E was excluded from the eight factors shown in Table 1, and the other factors were added. In Test #8 of the 48-hour culture, only factor F was excluded from the eight factors shown in Table 1, and the other factors were added. In Test #9 of the 48-hour culture, only factor G was excluded from the eight factors shown in Table 1, and the other factors were added. In Test #10 of the 48-hour culture, only factor H was excluded from the eight factors shown in Table 1, and the other factors were added.
# The amount of exosomes produced from ADSC was measured with Exo Counter (Kenwood), using 50 μl each from 1.5 ml of the collected culture supernatant. Exo Counter detects exosomes by sandwich immunoassay using disc and nanobeads antibodies in a surface antigen-specific manner. CD81 on the exosome surface was detected to quantify the exosome amount.
row,Compound,effect of the factor on the amount of exosomes produced
1,EGF [6045 Da protein consisting of 53 amino acid residues and three intramolecular disulfide bonds; ligand of epidermal growth factor receptor],promotes the production of exosomes
2,"OC[C@H]1O[C@H](O[C@H]2O[C@H](CO)[C@@H](O)[C@H](O)[C@H]2O)[C@H](O)[C@@H](O)[C@@H]1O [trehalose, Trehalose]",promoted the production of exosomes
3,TNFα,inhibited the production of exosomes
4,IL-1β,promoted the production of exosomes
